Assay results reported in patent US11976061B2, “Preparation of benzimidazolone derivatives as novel diacylglyceride O-acyltransferase 2 inhibitors” (Merck Sharp & Dohme LLC, priority 2020, dated 2024).
Like-named read-outs stand apart in the source and are kept apart here.

Molecular target: T1, human DGAT2 (hDGAT2) (Homo sapiens, UniProt Q96PD7)
T1 construct: made in house; host or cells: Sf-9 insect cells (baculovirus), membrane fraction
T1 sequence (Q96PD7 1-388): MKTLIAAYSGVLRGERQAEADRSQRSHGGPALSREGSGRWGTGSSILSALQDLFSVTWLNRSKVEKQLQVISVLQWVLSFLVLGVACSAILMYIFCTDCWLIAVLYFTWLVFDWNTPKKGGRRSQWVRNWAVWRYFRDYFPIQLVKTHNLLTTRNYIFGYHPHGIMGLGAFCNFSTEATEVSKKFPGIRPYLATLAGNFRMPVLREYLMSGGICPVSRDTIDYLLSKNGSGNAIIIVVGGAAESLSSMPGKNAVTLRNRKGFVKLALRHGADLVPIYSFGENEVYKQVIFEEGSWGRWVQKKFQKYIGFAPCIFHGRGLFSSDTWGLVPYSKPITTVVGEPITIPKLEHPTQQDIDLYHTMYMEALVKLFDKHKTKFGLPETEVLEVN
Experiment: DGAT2 Enzymatic Activity Assay
Assay type: biochemical
Settings: membrane prep of Sf-9 cells expressing hDGAT2, 25 μM diolein, 5 μM 13C oleoyl-CoA, 13C18-triolein by LC/MS/MS
Summary of the method: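 Membranes from Sf-9 cells expressing untagged human DGAT2 (8 ng/μL) incubated at rt in 100 mM Tris·Cl pH 7.0, 20 mM MgCl2, 5% ethanol with 25 μM diolein and 5 μM 13C oleoyl-CoA. 13C18-triolein product quantified by LC/MS/MS against 13C21-triolein internal standard; IC50 by 4-parameter fit.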

| IC50 (read-out: Human DGAT2 IC50) [nM] | IC50 (read-out: DGAT2 IC50) [nM] | SMILES |
| --- | --- | --- |
| – | 4.1 | CC(n1c(=O)n(-c2cccc(OCC(F)F)c2)c2ccc(C(=O)NC3(C)CCS(=O)(=O)CC3)cc21)C(C)(C)O (single isomer, unassigned) [Example 68a, 1-(3-(2,2-difluoroethoxy)phenyl)-3-(3-hydroxy-3-methylbutan-2-yl)-N-(4-methyl-1,1-dioxidotetrahydro-2H-thiopyran-4-yl)-2-oxo-2,3-dihydro-1H-benzo[d]imidazole-5-carboxamide] |
| – | 1 | CC(n1c(=O)n(-c2cc(OC(F)(F)F)ccc2F)c2cc(F)c(C(=O)NC3(C)CCS(=O)(=O)CC3)cc21)C(C)(C)O (single isomer, unassigned) [Example 70a, 6-fluoro-1-(2-fluoro-5-(trifluoromethoxy)phenyl)-3-(3-hydroxy-3-methylbutan-2-yl)-N-(4-methyl-1,1-dioxidotetrahydro-2H-thiopyran-4-yl)-2-oxo-2,3-dihydro-1H-benzo[d]imidazole-5-carboxamide] |
| – | 71 | CC(n1c(=O)n(-c2cc(OC(F)(F)F)ccc2F)c2ccc(C(=O)NC3(C)CCS(=O)(=O)CC3)cc21)C(C)(C)O (single isomer, unassigned) [Example 71a, 1-(2-fluoro-5-(trifluoromethoxy)phenyl)-3-(3-hydroxy-3-methylbutan-2-yl)-N-(4-methyl-1,1-dioxidotetrahydro-2H-thiopyran-4-yl)-2-oxo-2,3-dihydro-1H-benzo[d]imidazole-5-carboxamide] |
| – | 81 | CCC(C)n1c(=O)n(-c2cccc(OC(F)F)c2)c2ccc(C(=O)NC3(C)CS(=O)(=O)C3)cc21 (single isomer, unassigned) [Example 46a, 3-(sec-butyl)-1-(3-(difluoromethoxy)phenyl)-N-(3-methyl-1,1-dioxidothietan-3-yl)-2-oxo-2,3-dihydro-1H-benzo[d]imidazole-5-carboxamide] |
| – | 2.6 | CC(n1c(=O)n(-c2cc(OCC(F)F)ccc2F)c2ccc(C(=O)NC3(C)CCS(=O)(=O)CC3)cc21)C(C)(C)O (single isomer, unassigned) [Example 73a, 1-(5-(2,2-difluoroethoxy)-2-fluorophenyl)-3-(3-hydroxy-3-methylbutan-2-yl)-N-(4-methyl-1,1-dioxidotetrahydro-2H-thiopyran-4-yl)-2-oxo-2,3-dihydro-1H-benzo[a]imidazole-5-carboxamide] |
| – | 1.5 | CC(n1c(=O)n(-c2cc(OCC(F)F)ccc2F)c2cc(F)c(C(=O)NC3(C)CCS(=O)(=O)CC3)cc21)C(C)(C)O (single isomer, unassigned) [Example 75a, 1-(5-(2,2-difluoroethoxy)-2-fluorophenyl)-6-fluoro-3-(3-hydroxy-3-methylbutan-2-yl)-N-(4-methyl-1,1-dioxidotetrahydro-2H-thiopyran-4-yl)-2-oxo-2,3-dihydro-1H-benzo[d]imidazole-5-carboxamide] |

Continued, compound first:

| SMILES | IC50 (read-out: Human DGAT2 IC50) [nM] | IC50 (read-out: DGAT2 IC50) [nM] |
| --- | --- | --- |
| CC(C)n1c(=O)n(-c2cccc(OC(F)F)c2)c2cnc(C(=O)NC3(C)CCS(=O)(=O)CC3)cc21 [Example 106, 3-(3-(difluoromethoxy)phenyl)-1-isopropyl-N-(4-methyl-1,1-dioxidotetrahydro-2H-thiopyran-4-yl)-2-oxo-2,3-dihydro-1H-imidazo[4,5-c]pyridine-6-carboxamide] | 69.8 | – |
| CC(C)n1c(=O)n(-c2cccc(OC3CC3)c2)c2ccc(C(=O)NC3(C)CS(=O)(=O)C3)cc21 [Example 14, 1-[3-(cyclopropoxy)phenyl]-3-isopropyl-N-(3-methyl-1,1-dioxo-thietan-3-yl)-2-oxo-benzimidazole-5-carboxamide] | 15 | – |
| CC(C)n1c(=O)n(-c2cccc(OC(F)(F)F)c2)c2ccc(C(=O)NC3(C)CS(=O)(=O)C3)cc21 [Example 19, 3-isopropyl-N-(3-methyl-1,1-dioxo-thietan-3-yl)-2-oxo-1-[3-(trifluoromethoxy)phenyl]benz-imidazole-5-carboxamide] | 100 | – |
| CC(C)n1c(=O)n(-c2cccc(OC(F)F)c2)c2cc(F)c(C(=O)N[C@]3(C)CCS(=O)(=O)C3)cc21 [Example 113, (R)-1-(3-(Difluoromethoxy)phenyl)-6-fluoro-3-isopropyl-N-(3-methyl-1,1-dioxidotetrahydrothiophen-3-1)-2-oxo-2,3-dihydro-1H-benzo[d]imidazole-5-carboxamide] | – | 78 |
| CC(C)n1c(=O)n(-c2cccc(OC(F)F)c2)c2ccc(C(=O)N[C@]3(C)CCS(=O)(=O)C3)cc21 [Example 23, (R)-1-(3-(Difluoromethoxy)phenyl)-3-isopropyl-N-(3-methyl-1,1-dioxidotetrahydrothiophen-3-yl)-2-oxo-2,3-dihydro-1H-benzo[d]imidazole-5-carboxamide] | 63 | – |
| CC(=O)Nc1ccc(-n2c(=O)n(C(C)C)c3cc(C(=O)NC4(C)CS(=O)(=O)C4)ccc32)cc1O [Example 47, 1-(4-acetamido-3-hydroxyphenyl)-3-isopropyl-N-(3-methyl-1,1-dioxidothietan-3-yl)-2-oxo-2,3-dihydro-1H-benzo[d]imidazole-5-carboxamide] | – | > 10000 |
| CC(C)n1c(=O)n(-c2cccc(OC(F)F)c2)c2c(F)cc(C(=O)NC3(C)CCS(=O)(=O)CC3)cc21 [Example 111, 1-[3-(difluoromethoxy)phenyl]-7-fluoro-3-isopropyl-N-(4-methyl-1,1-dioxo-thian-4-yl)-2-oxo-benzimidazole-5-carboxamide] | – | 68 |
| CC1(NC(=O)c2cnc3c(c2)n(-c2ccc(F)cc2)c(=O)n3-c2cccc(OC(F)F)c2)CS(=O)(=O)C1 [Example 4, 3-(3-(difluoromethoxy)phenyl)-1-(4-fluorophenyl)-N-(3-methyl-1,1-dioxidothietan-3-yl)-2-oxo-2,3-dihydro-1H-imidazo[4,5-b]pyridine-6-carboxamide] | 8.5 | – |
| C[C@@]1(NC(=O)c2ccc3c(c2)n(-c2ccc(F)cc2)c(=O)n3-c2cccc(OC(F)F)c2)CCS(=O)(=O)C1 [Example 3, (R)-1-(3-(difluoromethoxy)phenyl)-3-(4-fluorophenyl)-N-(3-methyl-1,1-dioxidotetrahydrothiophen-3-yl)-2-oxo-2,3-dihydro-1H-benzo[d]imidazole-5-carboxamide] | 2.4 | – |
| CCOc1cc(-n2c(=O)n(C(C)C)c3cc(C(=O)N[C@@]4(C)CCS(=O)(=O)C4)ccc32)c(F)cn1 [Example 17, (S)-1-(2-Ethoxy-5-fluoropyridin-4-yl)-3-isopropyl-N-(3-methyl-1,1-dioxidotetrahydrothiophen-3-yl)-2-oxo-2,3-dihydro-1H-benzo[d]imidazole-5-carboxamide] | 122 | – |
| CC(C)n1c(=O)n(-c2cccc(OC(F)F)c2)c2cnc(C(=O)NC3(C)CS(=O)(=O)C3)cc21 [Example 105, 3-(3-(difluoromethoxy)phenyl)-1-isopropyl-N-(3-methyl-1,1-dioxidothietan-3-yl)-2-oxo-2,3-dihydro-1H-imidazo[4,5-c]pyridine-6-carboxamide] | 1800 | – |
| CCn1c(=O)n(-c2cccc(OC(F)F)c2)c2ccc(C(=O)NC3(C)CS(=O)(=O)C3)cc21 [Example 40, 1-(3-(Difluoromethoxy)phenyl)-3-ethyl-N-(3-methyl-1,1-dioxidothietan-3-yl)-2-oxo-2,3-dihydro-1H-benzo[d]imidazole-5-carboxamide] | – | 194 |
| Cc1nc2ccc(-n3c(=O)n(C(C)C)c4cc(C(=O)NC5(C)CS(=O)(=O)C5)ccc43)cc2o1 [Example 49, 3-isopropyl-N-(3-methyl-1,1-dioxidothietan-3-yl)-1-(2-methylbenzo[d]oxazol-6-yl)-2-oxo-2,3-dihydro-1H-benzo[d]imidazole-5-carboxamide] | – | > 10000 |
